The values that follow come from patent US8357697B2, “Substituted 3-isobutyl-9,10-dimethoxy-1,3,4,6,7,11b-hexahydro-2H-pyrido[2,1-A]isoquinolin-2-ol compounds and methods relating thereto” (Neurocrine Biosciences, Inc., priority 2006, dated 2013).

Structures are written as SMILES.

One data set addresses T1, Dopamine D2S receptor (Homo sapiens, UniProt P14416).
T1 construct: expressed in transfected cells; host or cells: CHO cells
Briefly: Dopamine D2S receptor competition binding ([3H]spiperone). The settings on record: for inhibition at 10 µM: read-out: D2S (h) % inhibition at 10 uM. As to the method:
(§1) The four HTBZ stereoisomers and compounds of the present invention were tested for receptor specificity by screening against a panel of 80 receptors, ion channels and transporters (High-throughput profile, Cerep, S. A.).
(a) Dopamine D2S receptor:
Reference: Grandy et al., (1989) Proc. Natl. Acad. Sci. USA 86: 9762-6
(§2) Source: Human recombinant (CHO cells)
Ligand: [3H]spiperone, 1.0 nM
Incubation time/temperature: 90 min/25° C.
Incubation buffer: 50 mM HEPES, 100 mM NaCl, 1 mM EDTA, 3 mM MgCl2, pH 7.4
Non-specific ligand: clozapine (10 μM)
Specific binding: 600 cpm
(§3) Quantitation method: Scintillation counting

In the next data set the target is T2, Dopamine D4.4 receptor (Homo sapiens, UniProt P21917).
T2 construct: expressed in transfected cells; host or cells: CHO cells
T2 sequence (P21917 1-419): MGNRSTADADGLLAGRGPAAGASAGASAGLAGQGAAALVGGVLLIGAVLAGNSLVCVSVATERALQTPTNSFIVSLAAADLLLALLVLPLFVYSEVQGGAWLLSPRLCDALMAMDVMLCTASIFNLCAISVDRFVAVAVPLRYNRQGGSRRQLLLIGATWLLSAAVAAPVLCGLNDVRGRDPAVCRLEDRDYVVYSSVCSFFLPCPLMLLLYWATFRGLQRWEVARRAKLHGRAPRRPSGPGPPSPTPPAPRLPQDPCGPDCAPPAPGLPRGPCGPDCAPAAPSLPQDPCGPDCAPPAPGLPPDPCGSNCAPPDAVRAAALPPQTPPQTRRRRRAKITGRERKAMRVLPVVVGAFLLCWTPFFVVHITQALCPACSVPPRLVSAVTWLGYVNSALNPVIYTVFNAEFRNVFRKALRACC
Briefly: Dopamine D4.4 receptor competition binding ([3H]spiperone). The settings on record: for inhibition at 10 µM: read-out: D4.4 (h) % inhibition at 10 uM; for inhibition at 1 µM: read-out: D4.4 (h) % inhibition at 1 uM. As to the method: as §1
(b) Dopamine D4.4 receptor:
as §2
Ligand: [3H]spiperone, 0.3 nM
Incubation time/temperature: 60 min./22° C.
Non-specific ligand: (+)butaclamol (10 μM)
as §3

The conditions of data set [1]: humans, background statement; cited from earlier work.
The next data set concerns human hepatocytes. Briefly: Stability of compounds in human hepatocytes. The settings on record: 1 μM, 0-60 min, FIGS. 1a-1c. In kind it is in vitro ADME. As to the method:
Cryopreserved human hepatocytes from 12 individual donors were thawed according to the supplier's instruction and pooled. Cell viability was determined to be more than 85%. TBZ (1 μM) was incubated with individual human hepatocytes (1×10^6 cells/mL) at 37° C. with 95% O2 and 5% CO2 for 0, 5, 15, 30 and 60 min. TBZ in DMSO was added to achieve 1.0 μM (DMSO was less than 0.5% v/v). All concentrations and cell contents were relative to the final incubation volume of 100 μL. The incubation was terminated by mixing 100 μL of ice-cold acetonitrile in 1% formic acid containing dextromethorphan (1.0 μM) as internal standard for LC/MS analysis. Precipitated proteins were removed by centrifugation (1500-2500×g for 30 min at 15° C.).
Briefly, samples were separated with a gradient HPLC method by Acquity HPLC systems consisting of a pump, a column heater (40° C.), and a vacuum degasser/mobile phase tray. Mobile phase A was water in 0.1% formic acid and mobile phase B was acetonitrile in 0.1% formic acid. The gradient elution was as follows: mobile phase B: 0-10% at 0-0.75 min, 40-90% at 1.25-1.5 min, 90-0% at 1.75-2.0 min, and run time was 3 min. The reverse phase column was a BEH C18 column (50×2.1 mm, 1.7 μm). Flow rate was 0.8 mL/min and injection volume was 7.5 μL. The samples were monitored with API-3000 mass spectrometer and ESI ion source in positive mode, TBZ m/z 318.4>220.4, HTBZ m/z 320.3>302.3, and dextromethorphan m/z 272.2>147.2.

Data set [2] deals with panel of 80 receptors, ion channels and transporters. Nature of the data set: Receptor selectivity binding assays (Cerep high-throughput profile). The settings on record: versus the dopamine receptors tested. How it is done:
as §1

The nature of data set [3]: Pharmacokinetic evaluation in dog, single oral dose. In kind it is in vivo. As to conditions: oral 10 mg/kg (2-1), FIGS. 3c-3d. How it is done: In brief, a single oral dose (6.1 mg/kg for 3-1 and 10 mg/kg for 2-1) in 10% PEG in 0.25% methylcellulose in milli Q water was administered to dogs (3 dogs/dose) for a pharmacokinetic evaluation. Serial sampling was used to collect blood samples, which were taken from each treated animal at nine time points ranging from pre-dose to 24 hours post dose ([…]) for the oral administration. Plasma samples were stored at −80° C. or below until analysis.
Plasma samples were thawed on ice, and 50 μL of plasma was transferred to a 96-well plate. Plasma proteins were precipitated by addition of pre-chilled 150 μL acetonitrile (ACN) containing 75 ng/mL internal standard. Additional 50 μL of ACN/water (60:40) was added into each sample. […] The supernatant was collected and injected into a LC-MS/MS system for quantification. […] Quantification was performed by fitting peak area ratios to a weighted (1/x^2) linear calibration curve.
(§4) Descriptive pharmacokinetics were derived and evaluated based on the plasma concentrations of 3-1, 2-1 and 1d.1 from each individual […]. Pharmacokinetic parameters were determined using Non-Compartmental Analysis of the plasma concentration-time profiles of 3-1, 2-1 and 1d.1 in WinNonlin pharmacokinetic modeling software Professional Version 5.0.1 program (Pharsight Corporation, Mountain View, Calif.).

The nature of data set [4]: Stability in dog liver microsomes. In kind it is in vitro ADME. As to conditions: 1 μM, 0-60 min, FIGS. 2a-2f. For orientation: Liver microsomes are a subcellular fraction often used to study metabolism.
Data set [5] in a line: Pharmacokinetic evaluation in rat, single oral dose. The class given is in vivo. How it is done:
In brief, single oral dose (10 mg/kg) of 2-1 and 3-1 in 10% PEG in 0.25% methylcellulose in milli Q water was administered to rats (3 rats/dose) for a pharmacokinetic evaluation. Serial sampling was used to collect blood samples, which were taken from each treated animal at nine time points ranging from pre-dose to 24 hours post dose (0, 0.25, 0.5, 1, 2, 4, 6, 8 and 24 hours) for the oral administration. Plasma samples were stored at −80° C. or below until analysis.
Plasma samples were thawed on ice, and 50 μL of plasma was transferred to a 96-well plate. Plasma proteins were precipitated by addition of pre-chilled 150 μL acetonitrile (ACN) containing 75 ng/mL internal standard. Additional 50 μL of ACN/water (60:40) was added into each sample. Calibration curve samples were prepared by a serial dilution in ACN/water (60:40). Fifty microliter of each standard sample was transferred to a 96-well plate followed by adding 150 μL acetonitrile (ACN) containing 75 ng/mL internal standard and 50 μL blank rat plasma. The plates were capped, mixed and centrifuged at 3000 rpm for 20 min. The supernatant was collected and injected into a LC-MS/MS system for quantification. […] of QC samples (4, 40, 400, 800 ng/ml) for 3-1,2-1 and 1d.1 were used as quality control for the studies needed and prepared in a same way as the standards. Quantification was performed by fitting peak area ratios to a weighted (1/x^2) linear calibration curve.
as §4

A further data set deals with T3, VMAT2 (Rattus norvegicus, UniProt Q01827).
T3 construct: on rat forebrain homegenate (100 μg membrane protein per well); from tissue; host or cells: rat striatum (Procedure A, vesicles) or Sprague-Dawley rat forebrain homogenate (Procedure B)
Nature of the data set: VMAT2 competition binding assay ([3H]-dihydrotetrabenazine). As to conditions: mean±SD, n in brackets; at least two independent experiments; read-out: pKi (n), VMAT2 affinity from competition binding studies (converted).

A short description of data set [6]: Stability in human liver microsomes. In kind it is in vitro ADME. The settings on record: 1 μM, 0-60 min, FIGS. 2a-2f. How it is done: Briefly, pooled human liver microsomes (0.1 or 0.5 mg/mL; n>10; mixed gender) were incubated at 37° C. with the test compound in the presence of an NADPH-generating system containing 50 mM, pH 7.4 potassium phosphate buffer, 3 mM magnesium chloride, 1 mM EDTA, 1 mM NADP, 5 mM G-6-P, and 1 Unit/mL G-6-PD.
Incubations were conducted in six modified 2.0-mL, 96-well, deep-well plates in 1 μM of each compound (0.01% DMSO) with a total volume of 250 μl. Each plate, representing a single time point, contained 96 Titertube® Micro Tubes allowing for duplicates of 48 compounds at each time point (0, 5, 10, 20, 40, and 60 minutes). Reaction was stopped by the addition of an appropriate stop reagent (0.3 mL of acetonitrile containing a proprietary internal standard). Precipitated proteins were removed by centrifugation for 15 min at 3000 rpm, and the supernatant fluid (˜0.1 mL) was analyzed by LC/MS for the % of parent compound remaining.
Samples were separated with a gradient HPLC method by Agilent LC systems consisting of a pump, a column heater (40° C.), and a vacuum degasser/mobile phase tray. Mobile phase A was water in 0.1% formic acid and mobile phase B was acetonitrile in 0.1% formic acid. […] The samples were monitored with API-3000 mass spectrometer and ESI ion source in positive mode, TBZ m/z 318.4>220.4, HTBZ m/z 320.3>302.3, and dextromethorphan m/z 272.2>147.2.

Data set [7] is described as follows: Stability in rat liver microsomes. The class given is in vitro ADME. As to conditions: 1 μM, 0-60 min, FIGS. 2a-2f.

T1 sequence (P14416 1-414 isoform P14416-2): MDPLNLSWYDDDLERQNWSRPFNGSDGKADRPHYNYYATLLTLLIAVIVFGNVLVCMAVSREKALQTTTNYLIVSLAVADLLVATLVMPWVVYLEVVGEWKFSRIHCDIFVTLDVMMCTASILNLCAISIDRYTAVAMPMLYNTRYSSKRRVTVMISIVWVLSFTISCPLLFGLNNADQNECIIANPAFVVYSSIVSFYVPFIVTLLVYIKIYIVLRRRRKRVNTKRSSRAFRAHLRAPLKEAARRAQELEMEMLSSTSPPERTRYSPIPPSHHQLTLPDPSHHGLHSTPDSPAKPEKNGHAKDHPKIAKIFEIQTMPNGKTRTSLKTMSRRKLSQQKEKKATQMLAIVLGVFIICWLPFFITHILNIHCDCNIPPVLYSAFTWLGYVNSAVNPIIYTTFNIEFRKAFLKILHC
T3 sequence (Q01827 whole entry): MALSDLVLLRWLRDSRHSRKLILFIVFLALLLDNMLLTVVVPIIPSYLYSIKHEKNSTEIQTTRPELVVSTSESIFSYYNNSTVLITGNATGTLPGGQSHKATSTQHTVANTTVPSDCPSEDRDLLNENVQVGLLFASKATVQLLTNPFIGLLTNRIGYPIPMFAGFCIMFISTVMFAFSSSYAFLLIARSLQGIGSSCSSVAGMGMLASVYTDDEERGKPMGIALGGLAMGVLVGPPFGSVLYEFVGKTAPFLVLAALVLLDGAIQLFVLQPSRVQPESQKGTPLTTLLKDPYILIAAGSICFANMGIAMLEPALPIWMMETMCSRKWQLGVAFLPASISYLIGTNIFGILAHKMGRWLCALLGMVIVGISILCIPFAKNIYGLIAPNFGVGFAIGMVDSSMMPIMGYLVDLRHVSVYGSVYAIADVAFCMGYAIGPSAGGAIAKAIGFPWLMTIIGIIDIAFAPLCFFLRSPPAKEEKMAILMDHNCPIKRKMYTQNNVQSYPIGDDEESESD
Protocol for VMAT2: Preparation of Rat Striatal Vesicles
Rat striata from three rats are pooled and homogenized in 0.32 M sucrose. The homogenate is then centrifuged at 2,000×g for 10 min at 4° C. and the resulting supernatant is centrifuged at 10,000×g for 30 min at 4° C. The resulting pellet containing the enriched synaptosomal fraction (2 mL) is subjected to osmotic shock by addition of 7 mL of distilled H2O, and subsequently the suspension is homogenized. The osmolarity is restored by the addition of 0.9 mL of 0.25 M HEPES and 0.9 mL of 1.0 M neutral L-(+)-tartaric acid dipotassium salt buffer (pH 7.5), followed by a 20 min centrifugation (20,000×g at 4° C.). […]
Aliquots of the vesicle suspension (0.16 mL, 15 μg of protein/mL) are incubated with competitor compounds (ranging from 1E-6M to 1E-12M) and 2 nM [^3H]-dihydrotetrabenazine (HTBZ; specific activity: 20 Ci/mmol, American Radiolabeled Chemicals, Inc) for 1 h at room temperature in a total volume of 0.5 mL. […] Nonspecific binding is determined using 20 μM tetrabenazine (TBZ). […] Bound radioactivity is determined by scintillation spectrometry.
Following incubation at 25° C. for two hours, bound radioligand was collected by rapid filtration onto GF/B glass fiber filters using a Unifilter-96 Harvester (PerkinElmer). […] Bound radioligand was quantified by scintillation counting using a Topcount NXT (PerkinElmer). […]

For the compound `COc1cc2c(cc1OC)[C@H]1C[C@H](O)[C@H](CC(C)C)CN1CC2` [2S, 3R, 11bR-HTBZ, (2S,3R,11bR)-3-isobutyl-9,10-dimethoxy-1,3,4,6,7,11b-hexahydro-2H-pyrido[2,1-a]isoquinolin-2-ol], on Dopamine D2S receptor, the “binding/inhibition at D2(S) (in words)” value was “some minor inhibition”. Also, at Dopamine D2S receptor (read-out: D2S (h) % inhibition at 30 uM), the inhibition at 30 µM worked out at 17%. In addition, at Dopamine D4.4 receptor, the “inhibition at dopamine D4.4 receptor (in words)” value is listed as “some minor inhibition” and the inhibition at 10 µM stood at 30%.

With `COc1cc2c(cc1OC)C1CC(=O)C(CC(C)C)CN1CC2` (racemic) [Tetrabenazine, 3-Isobutyl-9,10-dimethoxy-1,3,4,6,7,11b-hexahydro-2H-pyrido[2,1-a]isoquinolin-2-one, reference compound], the bioavailability result in data set [1] is “fairly low and variable”. The “conversion in human hepatocytes to HTBZ (tetrabenazine) or to 1d.1 (compounds 2-1, 3-1)” value (“conversion in human hepatocytes to HTBZ” for short) in the data set with human hepatocytes is given as “rapid”.

On to `COc1cc2c(cc1OC)[C@H]1C[C@@H](O)[C@H](CC(C)C)CN1CC2` [2R, 3R, 11bR-HTBZ, (2R,3R,11bR)-3-isobutyl-9,10-dimethoxy-1,3,4,6,7,11b-hexahydro-2H-pyrido[2,1-a]isoquinolin-2-ol], for which, at Dopamine D2S receptor, the inhibition at 10 µM is -6%. Also, at Dopamine D4.4 receptor, the inhibition at 1 µM came out at 0%.

On to `COc1cc2c(cc1OC)[C@H]1C[C@@H](OC(=O)[C@@H](N)C(C)C)[C@H](CC(C)C)CN1CC2` [Compound 2-1, (S)-2-Amino-3-methyl-butyric acid (2R,3R,11bR)-3-isobutyl-9,10-dimethoxy-1,3,4,6,7,11b-hexahydro-2H-pyrido[2,1-a]isoquinolin-2-yl ester], for which, in the data set on human hepatocytes, the “conversion in human hepatocytes to HTBZ” value is “comparatively slow”. Further, the “selectivity for VMAT2 (in words)” value in [2] is recorded as “demonstrated selectivity for VMAT2”. The “plasma half-life of 1d.1 upon oral administration of compound 2-1 relative to compound 3-1” value in [3] is 2-3 times; in data set [5] (oral 10 mg/kg, FIGS. 3a-3b), 2-3 times. Besides, in [4], the “conversion to 1d.1 in dog liver microsomes, compared with compound 3-1” value was “slower”. Further, the results for the inhibition at 10 µM on Dopamine D2S receptor and at Dopamine D4.4 receptor were 2% and 13%, respectively. Moreover, the Ki on VMAT2 is 0.2 µM. For the same compound, the “conversion to 1d.1 in human liver microsomes, compared with compound 3-1” value in data set [6] is reported as “slower”. In addition, the “conversion to 1d.1 in rat liver microsomes, compared with compound 3-1” value in data set [7] is “slower”.

As for `COc1cc2c(cc1OC)[C@@H]1C[C@H](O)[C@@H](CC(C)C)CN1CC2` [2S, 3S, 11bS-HTBZ], on Dopamine D2S receptor, the Ki was 0.192 µM and the “binding/inhibition at D2(S) (in words)” value is “high affinity binding”. On Dopamine D4.4 receptor, the inhibition at 1 µM came out at 9%.

As to `COc1cc2c(cc1OC)[C@@H]1C[C@@H](O)[C@@H](CC(C)C)CN1CC2` [2R, 3S, 11bS-HTBZ], the Ki on Dopamine D2S receptor stood at 0.057 µM; on Dopamine D4.4 receptor, 0.067 µM. At Dopamine D2S receptor, the “binding/inhibition at D2(S) (in words)” value was “high affinity binding”.

Turning to `CCOC(=O)O[C@@H]1C[C@@H]2c3cc(OC)c(OC)cc3CCN2C[C@H]1CC(C)C` [Compound 3-1, Carbonic acid ethyl ester (2R,3R,11bR)-3-isobutyl-9,10-dimethoxy-1,3,4,6,7,11b-hexahydro-2H-pyrido[2,1-a]isoquinolin-2-yl ester], the “conversion in human hepatocytes to HTBZ” value in the data set with human hepatocytes is listed as “rapid”. Also, the “selectivity for VMAT2 (in words)” value in [2] was “demonstrated selectivity for VMAT2”. In data set [5] (oral 10 mg/kg, limit of quantification 1 ng/mL), the “parent compound in rat plasma after oral administration” value was “No 3-1 was detected”. Also, the “rat plasma concentration time profile of 1d.1 from 3-1 compared with 1d.1 administered orally” value in [5] (oral, FIG. 3a) is reported as “indistinguishable”. Also, the inhibition at 10 µM at Dopamine D2S receptor and at Dopamine D4.4 receptor was 15% throughout. In addition, on VMAT2, the Ki was 0.0126 µM.

By inhibition is commonly meant the change of the read-out against control, counted positive when it falls.
